Patent US20040077540A1, “Compositions and methods for modulating physiology of epithelial junctional adhesion molecules for enhanced mucosal delivery of therapeutic compounds” (Nastech Pharmaceutical Company Inc., priority 2002, published 2004)
Read-outs that look alike come from different tables or passages of the source. Where a SMILES comes first, the peptide text is derived from it. Where no end group is shown, it is not given here.

How the values were obtained:
[1] = MTT assay, viability of mucosal epithelial tissue; type: cell-based; design: concentration or dose not given beside the values; conditions: human, EpiAirway™ units (mucosal epithelial tissue)
Experimental: MTT is a cell-permeable tetrazolium salt which is reduced by mitochondrial dehydrogenase activity to an insoluble colored formazan by viable cells with intact mitochondrial function or by nonmitochondrial NAD(P)H dehydrogenase activity from cells capable of generating a respiratory burst. […] We have employed a MTT reagent kit prepared by MatTek Corp for their units in order to assess viability.
A. The MTT reagent is supplied as a concentrate and is diluted into a proprietary DMEM-based diluent on the day viability is to be assayed (typically the afternoon of the day in which permeation kinetics and TER were determined in the morning). The final MTT concentration is 1 mg/mL
B. The final MTT solution is added to wells of a 24-well microplate at a volume of 300 μL per well. As has been noted above, this volume is sufficient to contact the membranes of the EpiAirway™ units but imposes no significant positive hydrostatic pressure on the cells.
C. The units are removed from the 24-well plate in which they were placed after TER measurements, and after removing any excess liquid from the exterior surface of the units, they are transferred to the plate containing MTT reagent. The units in the plate are then placed in an incubator at 37° C. in an atmosphere of 5% CO2 in air for 3 hours.
D. At the end of the 3-hour incubation, the units containing viable cells will have turned visibly purple. The insoluble formazan must be extracted from the cells in their units to quantitate the extent of MTT reduction. Extraction of the formazan is accomplished by transferring the units to a 24-well microplate containing 2 mL extractant solution per well, after removing excess liquid from the exterior surface of the units as before. This volume is sufficient to completely cover both the membrane and the apical surface of the units. Extraction is allowed to proceed overnight at room temperature in a light-tight chamber. MTT extractants traditionally contain high concentrations of detergent, and destroy the cells.
E. At the end of the extraction, the fluid from within each unit and the fluid in its surrounding well are combined and transferred to a tube for subsequent aliquotting into a 96-well microplate (200 μL aliquots are optimal) and determination of absorbance at 570 nm on a VMax multiwell microplate spectrophotometer. […] The “blank” for the determination of formazan absorbance is a 200 μL aliquot of extractant to which no unit had been exposed. This absorbance value is assumed to constitute zero viability.
F. Two units from each kit of 24 EpiAirway™ units are left untreated during determination of permeation kinetics and TER. These units are employed as the positive control for 100% cell viability. In all the studies conducted, there was no statistically significant difference in the viability of the cells in these untreated cells compared to viability of cells in control units which had been sham treated for permeation kinetics and on which TER determinations had been performed. The absorbance of all units treated with test formulations is assumed to be linearly proportional to the percent viability of the cells in the units at the time of the incubation with MTT. It should be noted that this assay is carried out typically no sooner than four hours after introduction of the test material to the apical surface, and subsequent to rinsing of the apical surface of the units during TER determination.
The MTT assays were performed using MTT-100, MatTek kits. […] of the MTT solution was added into each well. Tissue inserts were gently rinsed with clean PBS and placed in the MTT solution. The samples were incubated at 37° C. for 3 hours. After incubation the cell culture inserts were then immersed with 2.0 mL of the extractant solution per well to completely cover each insert. The extraction plate was covered and sealed to reduce evaporation. Extraction proceeds overnight at RT in the dark. […]

[2] = system: EpiAirway™ units (mucosal epithelial tissue); test: LDH assay, cytolysis of EpiAirway units; type: cell-based
From the text: While measurement of mitochondrial reductase activity by MTT reduction is a sensitive probe of cell viability, the assay necessarily destroys the cells and therefore can be carried out only at the end of each study. When cells undergo necrotic lysis, their cytotosolic contents are spilled into the surrounding medium, and cytosolic enzymes such as lactate dehydrogenase (LDH) can be detected in this medium. An assay for LDH in the medium can be performed on samples of medium removed at each time point of the two-hour determination of permeation kinetics. […] A. The recommended LDH assay for evaluating cytolysis of the EpiAirway™ units is based on conversion of lactate to pyruvate with generation of NADH from NAD. […] The formazan formed from reduction of INT is soluble, so that the entire assay for LDH activity can be carried out in a homogenous aqueous medium containing lactate, NAD, diaphorase, and INT. B. The assay for LDH activity is carried out on 50 μL aliquots from samples of “supernatant” medium surrounding an EpiAirway™ unit and collected at each time point. These samples were either stored for no longer than 24 h in the refrigerator or were thawed after being frozen within a few hours after collection. […] The aliquots are all transferred to a 96 well microplate. C. […] Thus, within experimental error, these sham-treated units show no cytolysis of the epithelial cells over the time course of the permeation kinetics measurements. D. […] This freeze-thaw cycle effectively lyses the cells and releases their cytosolic contents, including LDH, into the supernatant medium. […] E. To each well containing an aliquot of supernatant medium, a 50 μL aliquot of the LDH assay reagent is added. […] F. The reactions are terminated by addition of a “stop” solution of 1 M acetic acid, and within one hour of addition of the stop solution, the absorbance of the plate is determined at 490 nm. G.

[3] = aqueous solution at physiologic pH; cited from earlier work
[4] = system: ciliary function in epithelial cell cultures; conditions: cited from earlier work
[5] = system: ciliary beating frequency; conditions: cited from earlier work
[6] = intraduodenal, rats, with 1% (w/v) saline dispersion of polycarbophil vs aqueous solution without polymer; cited from earlier work
[7] = system: aminopeptidases; conditions: cited from earlier work
[8] = formulations comprising the permeabilizing peptide, read-out: MTT assay results (viability)
[9] = formulations comprising the permeabilizing peptide

Compound | viability [1, 8] [%] | toxic effects on viability of mucosal epithelial tissue, LDH assay [2, 9] | other results
VKLSCAY [NP-B, VKLSCAY] | – | – | viability [1]: > 80%; toxic effects on viability of mucosal epithelial tissue, LDH assay [2]: no significant toxic effects
VVPEAQKREM [NP-33] | > 80 | no significant adverse effects | –
ALCNQFYTP [NP-25] | > 80 | no significant toxic effects | –
VPDSMKFEIG [NP-30] | > 80 | no significant adverse effects | –
MTPVNARYEF [NP-28] | > 80 | no significant adverse effects | –
TGITFKSVT [NP-C] | – | – | viability [1]: > 80%; toxic effects on viability of mucosal epithelial tissue, LDH assay [2]: no significant toxic effects
YAGDNIVTAQ [NP-17] | – | – | viability [1]: > 80%; toxic effects on viability of mucosal epithelial tissue, LDH assay [2]: no significant adverse effects
GVNPTAQSS [NP-22] | > 80 | no significant toxic effects | –
NTIIRDFYNP [NP-10] | > 80 | no significant adverse effects | –
NCCN(CCN)/[N+]([O-])=N/O [diethylenetriamine/NO] | – | – | rate (time) of NO release [3]: approximately 20 hours
CC[C@H](C)[C@H](N)C(=O)N[C@H](C(=O)N[C@@H](C)C(=O)N[C@@H](CO)C(=O)O)[C@@H](C)O [NP-D, ITAS] (H-ITAS-OH) | > 80 | no significant toxic effects | –
VASGQKREMG [NP-29] | – | – | viability [1]: > 80%; toxic effects on viability of mucosal epithelial tissue, LDH assay [2]: no significant adverse effects
DIYSTLLGLP [NP-41] | > 80 | no significant adverse effects | –
CCN(CC)/[N+]([O-])=N/O.CCNCC [diethylamine/NO] | – | – | rate (time) of NO release [3]: < 3 min
2-alkyl-4-hydroxyquinolines [pyo compound] | – | – | concentration producing ciliostasis / inhibiting ciliary motility [4]: 50 µg/mL
CCO [ethanol] | – | – | concentration reducing the in vitro ciliary beating frequency [5]: greater than 2%
AATGLYVDQ [NP-24] | > 80 | no significant toxic effects | –
VPVSQKYELG [NP-32] | > 80 | no significant adverse effects | –
9-desglycinamide, 8-arginine vasopressin [DGAVP] | – | – | increase of bioavailability [6]: 3-5 fold
NIIQDFYNPL [NP-31] | – | – | viability [1]: > 80%; toxic effects on viability of mucosal epithelial tissue, LDH assay [2]: no significant adverse effects
YLYHYCVVD [NP-26] | > 80 | no significant toxic effects | –
CC(C)[C@H](NC(=O)[C@@H](N)CO)C(=O)N[C@H](C(=O)N[C@@H](CCCNC(=N)N)C(=O)O)[C@@H](C)O [NP-E, SVTR] (H-SVTR-OH) | > 80 | no significant toxic effects | –
GFSLGLWMEC [NP-42] | > 80 | no significant adverse effects | –
CC[C@H](C)[C@H](NC(=O)[C@H](CCCNC(=N)N)NC(=O)[C@@H](N)C(C)C)C(=O)N1CCC[C@H]1C(=O)O [NP-A, VRIP] (H-VRIP-OH) | > 80 | no significant toxic effects | –
EDTGTYTCM [NP-8] | – | – | viability [1]: > 80%; toxic effects on viability of mucosal epithelial tissue, LDH assay [2]: no significant toxic effects
GILRDFYSPL [NP-27] | > 80 | no significant adverse effects | –
CC(C)CC(N)B(O)O (centres unmarked) [boro-leucine] | – | – | effectiveness in enzyme inhibition relative to bestatin [7]: more than 100 times; effectiveness in enzyme inhibition relative to puromycin [7]: more than 1000 times
GFSSPRVEW [NP-21] | – | – | viability [1]: > 80%; toxic effects on viability of mucosal epithelial tissue, LDH assay [2]: no significant toxic effects
GSLYGSQIY [NP-23] | > 80 | no significant toxic effects | –
